Laboratory results published in patent US20050244983A1, “Method for measuring antioxidant status” (The Western Australian Centre for Pathology and Medical …, priority 2002, published 2005).
Values joined by “and” are separate entries in the source; they are usually repeats but may differ in a detail not shown here. Identical values can stand only once.

Experiments:
[1] = AIOR assay (antioxidant inhibition of radical assay): uroporphyrin I fluorescence decay with AAPH, area under curve against Trolox standard curve; type: biochemical; conditions: for Antioxidant Status (mM) Trolox Equivalent Calculated 1/16 Dilution: calculated from the observed ¼ dilution value; for Antioxidant Status Trolox Equivalent (mM) of the observed individual ¼ Dilution: individual polyphenol; for Antioxidant Status Trolox Equivalent (mM) of the observed individual ¼ Dilution / Antioxidant status in mM Trolox equivalent, High value / Antioxidant status in mM Trolox equivalent, Low value / Antioxidant status in mM Trolox equivalent, Mean value: n=9; for antioxidant activity of solvent (in words) / Antioxidant status in mM Trolox equivalent, High value / Antioxidant status in mM Trolox equivalent, Low value / Antioxidant status in mM Trolox equivalent, Mean value: solvent compared against blank; for Area Under Curve (mean ± SD): uroporphyrin 1/1000, ratio 1:45:280, n=6
Protocol: The stock phosphate buffer (0.75 M, pH 7.0) was prepared by mixing 61.1:38.9 (v/v) of a 0.75 M K2HPO4 and a 0.75 M NaH2PO4 solution. The working phosphate buffer 75 mM, pH 7.0 was prepared by a 1:9 (v/v) dilution of the 0.75 M stock phosphate buffer.
AAPH (583 mM) was prepared by dissolving completely 0.474 g of AAPH in 3 mL of 75 mM, pH 7.0 phosphate buffer. This solution was prepared freshly before each run.
Uroporphyrin stock solution (225 μM) was prepared by dissolving 1.2 mg of uroporphyrin I dihydrochloride in 5.9 mL of phosphate buffer (75 mM, pH 7.0). This solution was very stable for many months by storing in the dark at 4° C. A secondary uroporphyrin stock solution for routine use was prepared by a 1:50 (v/v) dilution of the stock uroporphyrin solution with phosphate buffer (75 mM, pH 7.0). This secondary stock solution was stable for several months in the dark at 4° C. A working uroporphyrin solution for daily use was prepared by a 1:750 (v/v) dilution of the secondary uroporphyrin solution with phosphate buffer (75 mM, pH 7.0).
To enable complete solubility of both hydrophobic and hydrophilic compounds in the sample, a surfactant Brij 35™ was added to the working uroporphyrin solution in the quantity of 0.1% of the reagent.
Trolox was used as an antioxidant standard to compare the antioxidant status of various inorganic and organic matter. A stock Trolox standard solution (5.0 mM) was prepared by dissolving Trolox 35 (250 mg) in 200 mL of phosphate buffer (75 mM, pH 7.0). Working standards of Trolox were prepared by diluting the stock Trolox standard to 0.5, 1.0 and 2.0 mM with the same buffer.
Sample/blank/standard (1 μL), and working uroporphyrin solution (0.300 uM) with Brij™ (136 μL) were added to the wells of a 96-well microplate. Blank, standards or diluted samples were added first into the well, followed by working uroporphyrin solution with Brij™. The contents of each well was mixed using a plateshaker for 1-2 minutes. Freshly prepared AAPH solution […] (22 μL) was then added. This procedure provided a sample to AAPH to uroporphyrin ratio of (1:22:136). The contents of the wells were then mixed again for exactly 2 minutes before acquisition of data with the Varian Cary Eclipse fluorescence spectrophotometer. A sample to reagent ratio of (2:30:186) was also used to further improve the precision of the assay.
The Varian Cary Eclipse fluorescence spectrophotometer settings were as follows. • Excitation λ=397 nm; Emission λ=615 nm. • Excitation Slit=20 nm; Emission Slit=10 nm. • Ave Time=0.2 sec. • Run Time=180 minutes. • Y (min-max)=0-1000. • Excitation Filter: Auto. • Emission Filter: Open. • PMT: Variable (Choice of low, medium or high).
The method takes the free radical action to completion in 180 minutes. The Varian Cary Eclipse fluorescence spectrophotometer has the ability to achieve high throughput of 96 samples in 180 minutes with the 96-wellplate format. […] This invention provides both a method and reagent, which can accurately, easily, economically, and quickly analyze antioxidant status.
The results of the analysis were normalized by Varian Cary Eclipse software and calculated by GraphPad Prism 4.0 software (GraphPad Software, Inc., San Diego Calif., 2003).

[2] = as above; type: biochemical; conditions: for Area Under Curve (mean ± SD): uroporphyrin 1/1000, ratio 1:45:280, n=6

## O=c1c(O)c(-c2ccc(O)c(O)c2)oc2cc(O)cc(O)c12 [Quercetin]
[1]
  Antioxidant Status (mM) Trolox Equivalent Calculated 1/16 Dilution: 1.10 mM
  Antioxidant Status Trolox Equivalent (mM) of the observed individual ¼ Dilution: 4.41 ± 0.44 mM
[1]; polyphenol 0.25 mM in ethanol
  Antioxidant Status Trolox Equivalent (mM ± SD): 1.82 ± 0.13 mM
[1]; polyphenol 0.5 mM in ethanol
  Antioxidant Status Trolox Equivalent (mM ± SD): 4.58 ± 0.24 mM

## Cn1c(=O)c2c(ncn2C)n(C)c1=O [caffeine]
[1]; caffeine 9.6 mmol/L in phosphate buffer
  mean antioxidant status in Trolox equivalent: 0.2 mM

## CC(C)O [Isopropanol]
[1]
  antioxidant activity of solvent (in words): no antioxidant activity
  Antioxidant status in mM Trolox equivalent, High value: 0.1 mM
  Antioxidant status in mM Trolox equivalent, Low value: 0.0 mM
  Antioxidant status in mM Trolox equivalent, Mean value: 0.04 mM

## Albumin
[1]; albumin 20 g/L in phosphate buffer, n=12
  Antioxidant Capacity in Trolox Equivalent (mM ± SD): 1.2 mM and 1.2 ± 0.1 mM
[1]; albumin 40 g/L in phosphate buffer, n=12
  Antioxidant Capacity in Trolox Equivalent (mM ± SD): 2.4 mM and 2.4 ± 0.1 mM

## Oc1cc(O)c2c(c1)O[C@H](c1ccc(O)c(O)c1)[C@H](O)C2 [(−) Epicatechin, (−) epicatechin]
[1]
  Antioxidant Status (mM) Trolox Equivalent Calculated 1/16 Dilution: 1.00 mM
  Antioxidant Status Trolox Equivalent (mM) of the observed individual ¼ Dilution: 4.03 ± 0.28 mM
[1]; polyphenol 0.25 mM in ethanol
  Antioxidant Status Trolox Equivalent (mM ± SD): 1.62 ± 0.13 mM
[1]; polyphenol 0.5 mM in ethanol
  Antioxidant Status Trolox Equivalent (mM ± SD): 3.69 ± 0.23 mM

## Cc1c(C)c2c(c(C)c1O)CCC(C)(C(=O)O)O2 (racemic) [Trolox, (±)6-hydroxy-2,5,7,8-tetramethylchromane-2-carboxylic acid]
[1]; STD 1.0 mM, AAPH 640 mM
  Area Under Curve (mean ± SD): 35554 ± 2267
[1]; STD 4.0 mM, AAPH 583 mM
  Area Under Curve (mean ± SD): 77238 ± 3701
[1]; Trolox 0.5 mM, 20 μL Brij 35 per 15 mL working uroporphyrin solution, n=24
  Mean Area Under Curve: 45482
[1]; Trolox 0.5 mM, 100 μL Brij 35 per 15 mL working uroporphyrin solution, n=24
  Mean Area Under Curve: 52714
[1]; Trolox 0.5 mM, intra-assay precision, n=16
  Mean Area Under Curve: 47456
[1]; Trolox 1.0 mM, 20 μL Brij 35 per 15 mL working uroporphyrin solution, n=24
  Mean Area Under Curve: 57154
[1]; Trolox 1.0 mM, 100 μL Brij 35 per 15 mL working uroporphyrin solution, n=24
  Mean Area Under Curve: 61482
[1]; Trolox 1.0 mM, intra-assay precision, n=16
  Mean Area Under Curve: 57535
[1]; Trolox 2.0 mM, 20 μL Brij 35 per 15 mL working uroporphyrin solution, n=24
  Mean Area Under Curve: 72596
[1]; Trolox 2.0 mM, intra-assay precision, n=16
  Mean Area Under Curve: 76499
[2]; STD 1.0 mM, AAPH 583 mM
  Area Under Curve (mean ± SD): 40829 ± 4000
[2]; STD 2.0 mM, AAPH 583 mM
  Area Under Curve (mean ± SD): 55416 ± 3207
[2]; STD 2.0 mM, AAPH 640 mM
  Area Under Curve (mean ± SD): 44522 ± 2348
[2]; STD 4.0 mM, AAPH 640 mM
  Area Under Curve (mean ± SD): 69220 ± 6603
[2]; Trolox 2.0 mM, 100 μL Brij 35 per 15 mL working uroporphyrin solution, n=24
  Mean Area Under Curve: 71394

## CC(C)=O [Acetone]
[1]
  antioxidant activity of solvent (in words): no antioxidant activity
  Antioxidant status in mM Trolox equivalent, High value: 0.2 mM
  Antioxidant status in mM Trolox equivalent, Low value: 0.0 mM
  Antioxidant status in mM Trolox equivalent, Mean value: 0.08 mM

## Vitamin E
[1]; vitamin E 952 μM in isopropanol, n=10
  Antioxidant Status in Trolox Equivalent (mM ± SD): 0.4 ± 0.1 mM
[1]; vitamin E 952 μM in isopropanol, n=10, listed as vitamin E
  Antioxidant Status in Trolox Equivalent (mM ± SD): 0.4 mM
[1]; vitamin E 1905 μM in isopropanol, n=10
  Antioxidant Status in Trolox Equivalent (mM ± SD): 1.1 ± 0.1 mM
[1]; vitamin E 1905 μM in isopropanol, n=10, listed as vitamin E
  Antioxidant Status in Trolox Equivalent (mM ± SD): 1.1 mM
[1]; vitamin E 3810 μM in isopropanol, n=10
  Antioxidant Status in Trolox Equivalent (mM ± SD): 2.7 ± 0.1 mM
[1]; vitamin E 3810 μM in isopropanol, n=10, listed as vitamin E
  Antioxidant Status in Trolox Equivalent (mM ± SD): 2.7 mM

## CCO [Ethanol]
[1]
  antioxidant activity of solvent (in words): no antioxidant activity
  Antioxidant status in mM Trolox equivalent, High value: 0.1 mM
  Antioxidant status in mM Trolox equivalent, Low value: 0.0 mM
  Antioxidant status in mM Trolox equivalent, Mean value: 0.08 mM

## O=C1O[C@H]([C@@H](O)CO)C(O)=C1O [Vitamin C]
[1]; vitamin C 2.65 mM in deionized water, n=12
  Antioxidant Status in Trolox Equivalent (mM ± SD): 0.9 ± 0.1 mM
[1]; vitamin C 2.65 mM in deionized water, n=12, listed as vitamin C
  Antioxidant Status in Trolox Equivalent (mM ± SD): 0.9 mM
[1]; vitamin C 5.30 mM in deionized water, n=12
  Antioxidant Status in Trolox Equivalent (mM ± SD): 1.8 ± 0.1 mM
[1]; vitamin C 5.30 mM in deionized water, n=12, listed as vitamin C
  Antioxidant Status in Trolox Equivalent (mM ± SD): 1.8 mM
[1]; vitamin C 10.6 mM in deionized water, outside standard curve range, n=12
  Antioxidant Status in Trolox Equivalent (mM ± SD): 4.0 ± 0.2 mM
[1]; vitamin C 10.6 mM in deionized water, outside standard curve range, n=12, listed as vitamin C
  Antioxidant Status in Trolox Equivalent (mM ± SD): 4.0 mM

## O=c1[nH]c(=O)c2[nH]c(=O)[nH]c2[nH]1 [Uric Acid, Uric acid]
[1]; uric acid 424 μM in phosphate buffer, n=12
  Antioxidant Status in Trolox Equivalent (mM ± SD): 0.6 ± 0.1 mM
[1]; uric acid 424 μM in phosphate buffer, n=12, listed as uric acid
  Antioxidant Status in Trolox Equivalent (mM ± SD): 0.6 mM
[1]; uric acid 848 μM in phosphate buffer, n=12
  Antioxidant Status in Trolox Equivalent (mM ± SD): 1.2 ± 0.1 mM
[1]; uric acid 848 μM in phosphate buffer, n=12, listed as uric acid
  Antioxidant Status in Trolox Equivalent (mM ± SD): 1.2 mM
[1]; uric acid 1696 μM in phosphate buffer, n=12
  Antioxidant Status in Trolox Equivalent (mM ± SD): 2.4 ± 0.1 mM
[1]; uric acid 1696 μM in phosphate buffer, n=12, listed as uric acid
  Antioxidant Status in Trolox Equivalent (mM ± SD): 2.4 mM
[1]; uric acid at physiological upper range for female, 340 μmol/L
  estimation of mean antioxidant status, Trolox equivalent: 0.48 mM
[1]; uric acid at physiological upper range for male, 420 μmol/L
  estimation of mean antioxidant status, Trolox equivalent: 0.59 mM

## (±) catechin
[1]; polyphenol 0.25 mM in ethanol
  Antioxidant Status Trolox Equivalent (mM ± SD): 1.60 ± 0.07 mM
[1]; polyphenol 0.5 mM in ethanol
  Antioxidant Status Trolox Equivalent (mM ± SD): 3.47 ± 0.19 mM

## Vitamin A
[1]; vitamin A 1940 μM in isopropanol, n=10
  Antioxidant Status in Trolox Equivalent (mM ± SD): 0.6 ± 0.1 mM
[1]; vitamin A 1940 μM in isopropanol, n=10, listed as vitamin A
  Antioxidant Status in Trolox Equivalent (mM ± SD): 0.56 mM
[1]; vitamin A 3880 μM in isopropanol, n=10
  Antioxidant Status in Trolox Equivalent (mM ± SD): 1.1 ± 0.1 mM
[1]; vitamin A 3880 μM in isopropanol, n=10, listed as vitamin A
  Antioxidant Status in Trolox Equivalent (mM ± SD): 1.11 mM
[1]; vitamin A 5820 μM in isopropanol, n=10
  Antioxidant Status in Trolox Equivalent (mM ± SD): 1.4 ± 0.1 mM
[1]; vitamin A 5820 μM in isopropanol, n=10, listed as vitamin A
  Antioxidant Status in Trolox Equivalent (mM ± SD): 1.41 mM

## C[S+](C)[O-] [DMSO, Dimethyl sulphoxide]
[1]
  Antioxidant status in mM Trolox equivalent, High value: 1.2 mM
  Antioxidant status in mM Trolox equivalent, Low value: 0.6 mM
  Antioxidant status in mM Trolox equivalent, Mean value: 0.86 mM

## O=C(O)c1cc(O)c(O)c(O)c1 [Gallic acid]
[1]
  Antioxidant Status (mM) Trolox Equivalent Calculated 1/16 Dilution: 0.45 mM
  Antioxidant Status Trolox Equivalent (mM) of the observed individual ¼ Dilution: 1.75 ± 0.11 mM
[1]; polyphenol 0.25 mM in ethanol
  Antioxidant Status Trolox Equivalent (mM ± SD): 0.46 ± 0.07 mM
[1]; polyphenol 0.5 mM in ethanol
  Antioxidant Status Trolox Equivalent (mM ± SD): 1.22 ± 0.17 mM
